Two molecules from patent publication US20040220081A1, “Nanoparticulate bioactive agents” (Spherics, Inc., priority 2002, published 2004) can be followed below.

One series in a line: in vivo. As to conditions: rat.
A short description of series [1]: Electron microscopy of precipitated particles of other drugs. Format: physicochemical. Conditions: 3% drug in dichloromethane precipitated in 100 vol. pentane, needles. The text has this:
In other experiments, 3% of the drug carbamazepine in dichloromethane was precipitated in 100 vol. of pentane. By electron microscopy, the particles were predominantly needles, about 1 micron in diameter by 50 microns in length. A few 1 micron spherical particles were also observed. A similar experiment using the drug itraconazole produced generally spherical particles in the range of about 0.1 to 0.5 microns diameter, by electron microscopy.

With `CC(=O)O[C@H]1C(=O)[C@@]2(C)[C@H]([C@H](OC(=O)c3ccccc3)[C@]3(O)C[C@H](OC(=O)[C@H](O)[C@@H](NC(=O)c4ccccc4)c4ccccc4)C(C)=C1C3(C)C)[C@]1(OC(C)=O)CO[C@@H]1C[C@@H]2O` [(e), paclitaxel], the bioavailability (as a rule, dose-corrected exposure relative to a reference, in per cent) in “in vivo” stood at 0.7%.
As to `NC(=O)N1c2ccccc2C=Cc2ccccc21` [carbamazepine], in series [1], the particle diameter entry is “about 1 micron” and the particle length is listed as about 50 microns.
